Assay [1] concerns the target T1, PRMT5 (Homo sapiens, UniProt O14744).
T1 construct: purchased Viva (custom protein)
Briefly: PRMT5 biochemical IC50 assay with SAM as cofactor. The following applies: PRMT5, SAM as cofactor; read-out: SAM IC50.

Assay [2] has as its target T1, PRMT5. The assay can be described thus: PRMT5 biochemical IC50 assay with no cofactor. The following applies: PRMT5, no cofactor; read-out: No Cofactor/ rel IC50. The source says: Table 1 indicates IC50 values (μM) against PRMT5 for exemplary compounds in the presence of SAM as cofactor, with no cofactor, and with MTA as cofactor, respectively (columns 4-6). […] Ki values can be calculated from the IC50 values as described in the Examples section. As detailed in the Examples section, for the assay performed in the presence of SAM, IC50=Ki×1.5 (Ki=IC50/1.5).

In assay [3] the target is T1, PRMT5. Briefly: PRMT5 biochemical IC50 assay with MTA as cofactor. The following applies: PRMT5, MTA as cofactor; read-out: MTA IC50.
The subject of assay [4] is HAP1 MTAP-intact cell line. Briefly: SDMA in-cell western assay, HAP1 MTAP-intact. Type of assay: cell-based. Conditions: HAP1 MTAP-intact, read-out: MTAP HAP1 intact IC50. A digest of the protocol: (§1)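 Isogenic HAP1 pair: the MTAP-intact line expresses endogenous MTAP, and the deleted line is MTAP-null. Symmetric dimethylarginine was detected by in-cell western and IC50 values derived for each line.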

The subject of assay [5] is HAP1 MTAP-deleted cell line. The assay can be described thus: SDMA in-cell western assay, HAP1 MTAP-deleted. Type of assay: cell-based. The following applies: for pIC50: HAP1 MTAP-deleted, read-out: HAP 1 MTAP deleted IC50; for MTAP intact/deleted ratio: IC50 ratio HAP1 MTAP-intact / HAP1 MTAP-deleted. In outline:
as §1

Assay [6] concerns HAP1 MTAP-deleted cell line. The assay can be described thus: Viability assay, MTAP-deleted cell line. Type of assay: cell-based. Conditions: MTAP-deleted cell line, read-out: HAP1 MTAP deleted viability. An excerpt: Table 1 additionally indicates IC50 values in a viability assay for the MTAP-deleted cell line (column 10), indicating the effect of treatment with compound on cell survival.

Setting [7] is: Homo sapiens, HAP1, SDMA in-cell western.
[8] abbreviates: Homo sapiens, HAP1, viability assay.

This note sets out measurements from US11999727B2 (Tango Therapeutics, Inc., priority 2020, dated 2024).

pIC50: −log10 of the molar value. Like-named read-outs stand apart in the source and are kept apart here.

T1 sequence (O14744 whole entry): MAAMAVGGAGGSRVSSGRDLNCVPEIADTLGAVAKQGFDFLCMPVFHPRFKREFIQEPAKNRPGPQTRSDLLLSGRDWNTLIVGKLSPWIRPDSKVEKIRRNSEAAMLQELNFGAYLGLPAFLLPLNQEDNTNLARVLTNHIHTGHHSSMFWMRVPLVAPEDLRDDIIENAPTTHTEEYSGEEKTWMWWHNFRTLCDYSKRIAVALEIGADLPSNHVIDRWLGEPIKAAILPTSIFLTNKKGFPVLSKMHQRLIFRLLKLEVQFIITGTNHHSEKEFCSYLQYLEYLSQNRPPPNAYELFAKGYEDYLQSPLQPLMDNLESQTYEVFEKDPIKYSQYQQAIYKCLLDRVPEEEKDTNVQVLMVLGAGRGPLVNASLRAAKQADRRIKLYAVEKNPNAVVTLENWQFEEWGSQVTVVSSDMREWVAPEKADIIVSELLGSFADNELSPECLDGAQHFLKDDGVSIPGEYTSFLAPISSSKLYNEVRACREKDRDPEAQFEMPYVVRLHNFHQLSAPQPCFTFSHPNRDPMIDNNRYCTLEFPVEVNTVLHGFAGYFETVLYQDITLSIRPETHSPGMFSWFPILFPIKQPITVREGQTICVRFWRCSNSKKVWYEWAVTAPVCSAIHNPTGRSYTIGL
T1 sequence (Q9BQA1 whole entry partner): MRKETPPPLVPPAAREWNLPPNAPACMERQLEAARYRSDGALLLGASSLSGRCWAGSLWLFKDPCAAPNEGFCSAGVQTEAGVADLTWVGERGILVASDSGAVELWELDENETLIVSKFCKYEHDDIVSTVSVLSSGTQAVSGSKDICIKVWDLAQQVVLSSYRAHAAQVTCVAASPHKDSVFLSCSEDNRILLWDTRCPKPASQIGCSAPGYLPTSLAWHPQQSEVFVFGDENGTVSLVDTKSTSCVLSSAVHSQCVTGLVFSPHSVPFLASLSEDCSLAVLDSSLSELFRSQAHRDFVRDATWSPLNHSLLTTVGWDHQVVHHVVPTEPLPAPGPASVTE

Take `Cc1cc(NC(=O)C(=O)N2CCCC[C@H]2C2CCCCC2)cnc1N` (single isomer, unassigned) [Compound 34]: the pIC50 in assay [1] is below 6.30; in assay [2], below 6.30; in assay [3], below 6.30; in assay [4] (setting [7]), below 6.00; in assay [5] (setting [7]) it was below 6.00; in assay [6] (setting [8]) it was below 5.00. Besides, the “MTAP intact/deleted ratio” value in assay [5] (SDMA in-cell western) is given as “C (an IC50 ratio of less than 3 fold)”.
For `Cc1cc(NC(=O)C(=O)N2CCCC[C@@H]2C2CCCCC2)cnc1N` (single isomer, unassigned) [Compound 42], the pIC50 in assay [1] was 6.30 to 7.30; in assay [2], 6.30 to 7.30; in assay [3] it was above 7.30; in assay [4] (setting [7]), below 6.00; in assay [5] (setting [7]), above 7.00; in assay [6] (setting [8]) it was 5.00 to 6.00. In addition, in assay [5] (SDMA in-cell western), the “MTAP intact/deleted ratio” value is reported as “A (an IC50 ratio greater than or equal to 10 fold)”.
Regarding `Cn1nccc1C1CCCCN1C(=O)C(=O)Nc1cncc(C(N)=O)c1` (single isomer, unassigned) [Compound 46], the pIC50 is 6.30 to 7.30 in assay [1]; 6.30 to 7.30 in assay [2]; above 7.30 in assay [3]; below 6.00 in assay [4] (setting [7]); 6.00 to 7.00 in assay [5] (setting [7]); below 5.00 in assay [6] (viability assay). Also, the “MTAP intact/deleted ratio” value in assay [5] (SDMA in-cell western) is “A (an IC50 ratio greater than or equal to 10 fold)”.
For `Cc1cc(NC(=O)C(=O)N2CCCC[C@H]2c2ccncc2)cnc1N` (single isomer, unassigned) [Compound 47], the pIC50 is below 6.30 in assay [1]; below 6.30 in assay [2]; below 6.30 in assay [3]; below 6.00 in assay [4] (setting [7]); below 6.00 in assay [5] (setting [7]); below 5.00 in assay [6] (setting [8]). The “MTAP intact/deleted ratio” value in assay [5] (SDMA in-cell western) was “C (an IC50 ratio of less than 3 fold)”.
In the case of `Cc1cc(NC(=O)C(=O)N2CCCC[C@@H]2c2ccncc2)cnc1N` (single isomer, unassigned) [Compound 50], the pIC50 in assay [1] is 6.30 to 7.30; in assay [2] it was 6.30 to 7.30; in assay [3], above 7.30; in assay [4] (setting [7]), below 6.00; in assay [5] (setting [7]), 6.00 to 7.00; in assay [6] (setting [8]) it was below 5.00. In assay [5] (SDMA in-cell western), the “MTAP intact/deleted ratio” value is listed as “B (an IC50 ratio greater than or equal to 3 fold but lower than 10 fold)”.
In the case of `Cc1cc(NC(=O)C(=O)N2CCCC[C@@H]2c2ccccc2)cnc1N` (single isomer, unassigned) [Compound 51], the pIC50 in assay [1] was 6.30 to 7.30; in assay [2], 6.30 to 7.30; in assay [3], above 7.30; in assay [4] (setting [7]) it was below 6.00; in assay [5] (setting [7]), 6.00 to 7.00; in assay [6] (setting [8]), below 5.00. Besides, in assay [5] (SDMA in-cell western), the “MTAP intact/deleted ratio” value was “B (an IC50 ratio greater than or equal to 3 fold but lower than 10 fold)”.
Regarding `Cc1cc(NC(=O)C(=O)N2CC(C)(C)CCC2c2ccccc2)cnc1N` (single isomer, unassigned) [Compound 52, N-(6-amino-5-methylpyridin-3-yl)-2-(5,5-dimethyl-2-phenylpiperidin-1-yl)-2-oxoacetamide], the pIC50 in assay [1] is 6.30 to 7.30; in assay [2], 6.30 to 7.30; in assay [3], above 7.30; in assay [4] (SDMA in-cell western), 6.00 to 7.00; in assay [5] (SDMA in-cell western), above 7.00; in assay [6] (viability assay), 5.00 to 6.00. Also, in assay [5] (SDMA in-cell western), the “MTAP intact/deleted ratio” value is “A (an IC50 ratio greater than or equal to 10 fold)”.
Consider `Cc1cccc([C@H]2CCCCN2C(=O)C(=O)Nc2cnc(N)c(C)c2)c1` (single isomer, unassigned) [Compound 54], for which the pIC50 is 6.30 to 7.30 in assay [1]; 6.30 to 7.30 in assay [2]; above 7.30 in assay [3]; below 6.00 in assay [4] (setting [7]); 6.00 to 7.00 in assay [5] (setting [7]); 5.00 to 6.00 in assay [6] (setting [8]). The “MTAP intact/deleted ratio” value in assay [5] (SDMA in-cell western) is given as “A (an IC50 ratio greater than or equal to 10 fold)”.
Take `Cc1cc(NC(=O)C(=O)N2CCCC[C@H]2c2ccccc2)cnc1N` (single isomer, unassigned) [Compound 55]: the pIC50 in assay [1] was below 6.30; in assay [2], below 6.30; in assay [3] it was 6.30 to 7.30; in assay [4] (setting [7]), below 6.00; in assay [5] (setting [7]), below 6.00; in assay [6] (setting [8]) it was below 5.00. Further, the “MTAP intact/deleted ratio” value in assay [5] (SDMA in-cell western) is recorded as “C (an IC50 ratio of less than 3 fold)”.
On to `Cc1cccc([C@@H]2CCCCN2C(=O)C(=O)Nc2cnc(N)c(C)c2)c1` (single isomer, unassigned) [Compound 57], for which the pIC50 in assay [1] was below 6.30; in assay [2] it was below 6.30; in assay [3] it was 6.30 to 7.30; in assay [4] (setting [7]) it was below 6.00; in assay [5] (setting [7]) it was below 6.00; in assay [6] (setting [8]), below 5.00. Further, the “MTAP intact/deleted ratio” value in assay [5] (SDMA in-cell western) is recorded as “C (an IC50 ratio of less than 3 fold)”.
Turning to `Cc1cc(NC(=O)C(=O)N2CC(C)(C)CCC2c2ccccc2)cnc1N` (single isomer, unassigned) [Compound 58, N-(6-amino-5-methylpyridin-3-yl)-2-(5,5-dimethyl-2-phenylpiperidin-1-yl)-2-oxoacetamide], the pIC50 in assay [1] is below 6.30; in assay [2], below 6.30; in assay [3] it was below 6.30; in assay [4] (SDMA in-cell western) it was below 6.00; in assay [5] (SDMA in-cell western), below 6.00; in assay [6] (viability assay) it was below 5.00. Moreover, the “MTAP intact/deleted ratio” value in assay [5] (SDMA in-cell western) is “C (an IC50 ratio of less than 3 fold)”.
`Cc1cc(NC(=O)C(=O)N2C[C@H]3CC[C@H](C3)[C@@H]2c2ccccc2)cnc1N` (single isomer, unassigned) [Compound 63]: the pIC50 was below 6.30 in assay [1]; below 6.30 in assay [2]; below 6.30 in assay [3]; below 6.00 in assay [4] (setting [7]); below 6.00 in assay [5] (setting [7]); below 5.00 in assay [6] (setting [8]). The “MTAP intact/deleted ratio” value in assay [5] (SDMA in-cell western) is on record as “C (an IC50 ratio of less than 3 fold)”.
For `Cc1cc(NC(=O)C(=O)N2C[C@@H]3CC[C@@H](C3)[C@H]2c2ccccc2)cnc1N` (single isomer, unassigned) [Compound 64], the pIC50 in assay [1] was 6.30 to 7.30; in assay [2], 6.30 to 7.30; in assay [3] it was above 7.30; in assay [4] (setting [7]), below 6.00; in assay [5] (setting [7]), above 7.00; in assay [6] (setting [8]), below 5.00. The “MTAP intact/deleted ratio” value in assay [5] (SDMA in-cell western) is listed as “A (an IC50 ratio greater than or equal to 10 fold)”.
For the compound `Cc1cc(NC(=O)C(=O)N2C[C@H]3CC[C@H](C3)[C@H]2c2ccccc2)cnc1N` (single isomer, unassigned) [Compound 65], the pIC50 in assay [1] is 6.30 to 7.30; in assay [2] it was 6.30 to 7.30; in assay [3], 6.30 to 7.30; in assay [4] (setting [7]), below 6.00; in assay [5] (setting [7]), above 7.00; in assay [6] (setting [8]), 5.00 to 6.00. Further, the “MTAP intact/deleted ratio” value in assay [5] (SDMA in-cell western) is “A (an IC50 ratio greater than or equal to 10 fold)”.
With `Cc1cncc(NC(=O)C(=O)N2C[C@H](C)CC[C@H]2c2ccc(N)cc2)c1` (single isomer, unassigned) [Compound 67], the pIC50 in assay [1] is 6.30 to 7.30; in assay [2], 6.30 to 7.30; in assay [3] it was 6.30 to 7.30; in assay [4] (setting [7]), below 6.00; in assay [5] (setting [7]), below 6.00; in assay [6] (setting [8]) it was below 5.00. In addition, in assay [5] (SDMA in-cell western), the “MTAP intact/deleted ratio” value is reported as “B (an IC50 ratio greater than or equal to 3 fold but lower than 10 fold)”.
